“Also recorded” adds a separate entry of the source. Non-standard residues stand in square brackets, D forms with d. Residues, ends and D or L forms follow the SMILES beside them. No end group written: not given here. NMeF = CN[C@@H](Cc1ccccc1)C(=O)O

Assay [1] addresses rat spinal cord membrane receptor. Kind of assay: [125I]D-Tyr-NPFF radioligand binding, rat spinal cord membranes. The following applies: competition of [125I]D-Tyr-NPFF binding; * = differs from NPFF1. The text has this:
The binding profile of rat NPFF1 was compared to that of rat spinal cord membranes. […] (See * Table 2).

Assay [2] concerns the target NPFF receptors. The note with it: cited from earlier work; for inhibition of [125I](1DMe)Y8Fa binding: 10 μM.
Assay [3] deals with T1, human NPFF1 receptor (Homo sapiens, UniProt Q9GZQ6).
T1 construct: To obtain a full-length hNPFF1 construct in the correct orientation; expressed in transfected cells; host or cells: HEK-293 (transient)
Nature of the assay: [125I]D-Tyr-NPFF radioligand binding, HEK-293 cells expressing human NPFF1. The following applies: Table 3, read-out: pKi ± SEM, human NPFF1 (converted). As for the experimental part:
(§1) Transfected cells from culture flasks are scraped into 5 ml of 20 mM Tris-HCl, 5 mM EDTA, pH 7.5, and lysed by sonication. The cell lysates are centrifuged at 1000 rpm for 5 min. at 4° C., and the supernatant is centrifuged at 30,000×g for 20 min. at 4° C. The pellet is suspended in binding buffer (50 mM Tris-HCl, 60 mM NaCl, 1 mM MgCl, 33 μM EDTA, 33 μM EGTA at pH 7.4 supplemented with 0.2% BSA, 2 μg/ml aprotinin, and 20 μM bestatin). Optimal membrane suspension dilutions, defined as the protein concentration required to bind less than 10% of the added radioligand, are added to 96-well polpropylene microtiter plates containing ^3H-labeled compound, unlabeled compounds, and binding buffer to a final volume of 250 μl. In equilibrium saturation binding assays membrane preparations are incubated in the presence of increasing concentrations of [^3H]-labeled compound. The binding affinities of the different compounds are determined in equilibrium competition binding assays, using [^125I]-labeled compound in the presence of ten to twelve different concentrations of the displacing ligands. Competition assay: 50 pM radioligand, 10-12 points. Binding reaction mixtures are incubated for 2 hr at 25° C., and the reaction stopped by filtration through a double layer of GF filters treated with 0.1% polyethyleneimine, using a cell harvester. Wash buffer: 50 mM Tris-HCl, 0.1% BSA. Radioactivity may be measured by scintillation counting and data are analyzed by a computerized non-linear regression program. Non-specific binding is defined as the amount of radioactivity remaining after incubation of membrane protein in the presence of 1 μM final concentration […]. Protein concentration may be measured by the Bradford method using Bio-Rad Reagent, with bovine serum albumin as a standard.
(§2) Additional pharmacological evaluation was done using 293 human embryonic kidney cells (HEK-293 cells) transiently expressing the genes encoding the human NPFF1, NPFF2, and rat NPFF1 receptors, as well as Cos-7 cells expressing the rat NPFF2 receptors.

For assay [4], the target named is T2, human NPFF2 receptor (Homo sapiens, UniProt Q9Y5X5).
T2 construct: BO89, was determined to be a full length clone with no point mutations; expressed in transfected cells; host or cells: HEK-293 (transient)
Kind of assay: [125I]D-Tyr-NPFF radioligand binding, HEK-293 cells expressing human NPFF2. The note with it: for Ki: Table 3, HEK-293 cells, [125I]D-Tyr-NPFF, read-out: pKi ± SEM, human NPFF2 (converted). As for the experimental part:
as §1, §2

Assay [5] deals with T3, rat NPFF2 receptor (Rattus norvegicus, UniProt Q9EQD2).
T3 construct: The full-length rat NPFF2 clone was amplified from rat spinal cord cDNA; expressed in transfected cells; host or cells: COS-7
Kind of assay: [125I]D-Tyr-NPFF radioligand binding, cloned rat NPFF2. The note with it: for Ki: Table 3, title HEK-293 cells (text: Cos-7), [125I]D-Tyr-NPFF, read-out: pKi ± SEM, rat NPFF2 (converted). On the procedure: as §1, §2

Assay [6] has as its target T4, rat NPFF1 receptor (Rattus norvegicus, UniProt Q9EP86). Nature of the assay: [125I]D-Tyr-NPFF radioligand binding, HEK-293 cells expressing rat NPFF1. Also on record: expressed in transfected cells. The following applies: Table 3, read-out: pKi ± SEM, rat NPFF1 (converted). As for the experimental part: as §1, §2
Assay [7] concerns anesthetized rats. Nature of the assay: Distension-induced rhythmic contraction (DIRC) model of the micturition reflex in anesthetized rats. The class given is in vivo, rat. The following applies: i.v.; fPP 0.1 mg/kg. As for the experimental part: The effects of compounds on the micturition reflex were assessed in the “distension-induced rhythmic contraction” (DIRC) model in rats. This model of the micturition reflex has been described in previous publications (e.g. 72, 73).
Female Sprague Dawley rats weighing approximately 300 g were anesthetized with subcutaneous urethane (1.2 g/kg). The trachea was cannulated with PE240 tubing to provide a clear airway throughout the experiment. A midline abdominal incision was made and the left and right ureters were isolated. The ureters were ligated distally (to prevent escape of fluids from the bladder) and cannulated proximally with PE10 tubing. The incision was closed using 4-0 silk sutures, leaving the PE10 lines routed to the exterior for the elimination of urine. The bladder was canulated via the transurethral route using PE50 tubing inserted 2.5 cm beyond the urethral opening. This cannula was secured to the tail using tape and connected to a pressure transducer. To prevent leakage from the bladder, the cannula was tied tightly to the exterior urethral opening using 4-0 silk.
To initiate the micturition reflex, the bladder was first emptied by applying pressure to the lower abdomen, and then filled with normal saline in 100 μl increments (maximum=2 ml) until spontaneous bladder contractions occurred (typically 20-40 mmHg at a rate of one contraction every 2 to 3 minutes. Once a regular rhythm was established, vehicle (saline) or test compounds were administered intravenously to examine their effects on bladder activity. The effect of a compound which inhibited the micturition reflex was expressed as its “disappearance time”, defined as the time between successive bladder contractions in the presence of the test compound minus the time between contractions before compound administration.

The target in assay [8] is T4, rat NPFF1 receptor. Kind of assay: [125I]D-Tyr-NPFF radioligand binding, membranes of COS-7 cells transiently expressing cloned rat NPFF1. Also on record: expressed in transfected cells; host or cells: COS-7 (transient). On the procedure:
as §1, with “The pellet is suspended in binding buffer (50 mM Tris-HCl, 60 mM NaCl, 1 mM MgCl, 33 μM EDTA, 33 μM EGTA at pH 7.4 supplemented with 0.2% BSA, 2 μg/ml aprotinin, and 20 μM bestatin).” left out, “[…],” for “are added to 96-well polpropylene microtiter plates containing ^3H-labeled compound,”, “The binding affinities of the different compounds are determined in equilibrium competition binding assays, using [^125I]-labeled compound in the presence of ten to twelve different concentrations of the displacing ligands.” left out
Cos-7 cells transiently expressing the gene encoding the novel rat NPFF1 receptor were used for pharmacological evaluation.

Assay [9] deals with T5, NPFF1 (SNORF2) (Rattus norvegicus, UniProt Q9EP86).
T5 construct: linearized plasmids or PCR products containing the complete coding region of the genes; expressed in transfected cells; host or cells: Xenopus laevis oocytes injected with synthetic RNA (T7 transcripts)
Nature of the assay: Voltage-clamp electrophysiology, Xenopus oocytes injected with SNORF2 (NPFF1) and chimeric Gαq/z RNA. The class given is cell-based. The following applies: 1 μM; oocytes with SNORF2 + Gαq/z; holding potential −80 mV. On the procedure:
(§3) Oocytes were harvested from Xenopus laevis and injected with mRNA transcripts as previously described (Quick and Lester, 1994; Smith et al., 1997). […] Three to eight hours prior to recording, oocytes were injected with 500 pg Gαq/z mRNA in order to observe coupling to Ca^++ activated Cl^− currents. Dual electrode voltage clamp (Axon Instruments Inc.) was performed using 3 M KCl-filled glass microelectrodes having resistances of 1-2 Mohm. Unless otherwise specified, oocytes were voltage clamped at a holding potential of −80 mV. During recordings, oocytes were bathed in continuously flowing (1-3 ml/min) medium containing 96 mM NaCl, 2 mM KCl, 1.8 mM CaCl2, 1 mM MgCl2, and 5 mM HEPES, pH 7.5 (ND96). Drugs were applied either by local perfusion from a […] glass capillary tube fixed at a distance of 0.5 mm from the oocyte, or by switching from a series of gravity fed perfusion lines.
(§4) Heterologous expression of GPCRs in Xenopus oocytes has been widely used to determine the identity of signaling pathways activated by agonist stimulation (Gundersen et al., 1983; Takahashi et al., 1987). Activation of the phospholipase C (PLC) pathway is assayed by applying test compound in ND96 solution to oocytes previously injected with mRNA for the mammalian receptor and observing inward currents at a holding potential of −80 mV. The appearance of currents that reverse at −25 mV and display other properties of the Ca^++-activated Cl^− (chloride) channel is indicative of mammalian receptor-activation of PLC and release of IP3 and intracellular Ca^++.

The target of assay [10] is T6, NPFF2 (NPFF-like) (Homo sapiens, UniProt Q9Y5X5).
T6 construct: linearized plasmids or PCR products containing the complete coding region of the genes; expressed in transfected cells; host or cells: Xenopus laevis oocytes injected with mRNA from ligation PCR products or linearized BO89
Kind of assay: Voltage-clamp electrophysiology, Xenopus oocytes injected with NPFF-like (NPFF2) and chimeric Gαq/z RNA. It counts as cell-based. The note with it: 1 μM, holding potential −80 mV. As for the experimental part:
For expression of NPFF2, mRNA transcripts were generated as described for NPFF1, using PCR products from ligation reactions or linearized DNA from BO89 as DNA templates. Oocytes were injected with 5-50 ng NPFF2 mRNA and incubated as previously described.
as §3, §4

T6 sequence (Q9Y5X5 103-522): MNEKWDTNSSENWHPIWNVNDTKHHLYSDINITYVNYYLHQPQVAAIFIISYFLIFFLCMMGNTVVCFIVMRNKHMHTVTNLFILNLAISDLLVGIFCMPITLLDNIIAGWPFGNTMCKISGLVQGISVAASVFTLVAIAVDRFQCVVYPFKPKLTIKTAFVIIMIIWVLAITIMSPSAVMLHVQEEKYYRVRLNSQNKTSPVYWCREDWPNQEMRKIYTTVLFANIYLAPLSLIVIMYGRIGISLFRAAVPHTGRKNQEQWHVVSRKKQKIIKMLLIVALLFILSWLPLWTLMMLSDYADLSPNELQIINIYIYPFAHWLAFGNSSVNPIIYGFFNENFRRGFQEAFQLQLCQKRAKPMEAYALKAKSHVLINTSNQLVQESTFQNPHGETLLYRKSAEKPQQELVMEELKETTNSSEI
T2 sequence (Q9Y5X5 103-522): as above
T4 sequence (Q9EP86 whole entry): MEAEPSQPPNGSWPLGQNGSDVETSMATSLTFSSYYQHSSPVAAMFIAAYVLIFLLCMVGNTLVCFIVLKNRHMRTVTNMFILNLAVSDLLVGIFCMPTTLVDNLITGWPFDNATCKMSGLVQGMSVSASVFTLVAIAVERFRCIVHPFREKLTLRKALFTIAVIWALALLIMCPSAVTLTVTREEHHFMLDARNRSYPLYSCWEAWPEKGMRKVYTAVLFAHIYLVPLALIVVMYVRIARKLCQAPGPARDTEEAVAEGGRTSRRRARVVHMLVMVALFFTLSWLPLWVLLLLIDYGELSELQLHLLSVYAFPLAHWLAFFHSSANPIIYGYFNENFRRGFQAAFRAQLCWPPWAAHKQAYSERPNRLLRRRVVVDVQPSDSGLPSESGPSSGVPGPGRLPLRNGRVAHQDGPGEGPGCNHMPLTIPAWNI
T3 sequence (Q9EQD2 whole entry): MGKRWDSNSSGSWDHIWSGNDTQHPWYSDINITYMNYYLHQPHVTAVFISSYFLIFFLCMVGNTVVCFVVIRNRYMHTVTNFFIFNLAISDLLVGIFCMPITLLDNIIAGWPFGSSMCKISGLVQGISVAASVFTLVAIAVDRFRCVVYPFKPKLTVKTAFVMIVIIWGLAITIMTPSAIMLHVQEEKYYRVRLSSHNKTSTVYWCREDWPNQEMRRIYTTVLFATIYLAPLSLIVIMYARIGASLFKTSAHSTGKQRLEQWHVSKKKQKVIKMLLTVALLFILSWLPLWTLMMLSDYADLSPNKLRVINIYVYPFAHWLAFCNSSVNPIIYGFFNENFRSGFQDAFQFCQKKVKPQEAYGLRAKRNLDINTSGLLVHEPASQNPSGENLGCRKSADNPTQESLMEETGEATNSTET
T1 sequence (Q9GZQ6 whole entry): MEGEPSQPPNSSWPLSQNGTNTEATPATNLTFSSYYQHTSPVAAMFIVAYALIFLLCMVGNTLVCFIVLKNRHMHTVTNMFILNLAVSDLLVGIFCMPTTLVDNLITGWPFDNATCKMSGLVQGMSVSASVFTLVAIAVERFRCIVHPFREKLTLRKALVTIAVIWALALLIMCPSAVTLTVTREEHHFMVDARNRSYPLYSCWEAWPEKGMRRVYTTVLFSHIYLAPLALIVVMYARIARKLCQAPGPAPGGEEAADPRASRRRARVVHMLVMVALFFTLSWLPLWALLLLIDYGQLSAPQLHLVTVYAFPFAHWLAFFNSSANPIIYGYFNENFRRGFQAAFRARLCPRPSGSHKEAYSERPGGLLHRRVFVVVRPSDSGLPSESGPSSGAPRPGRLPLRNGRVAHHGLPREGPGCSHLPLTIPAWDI
T5 sequence (Q9EP86 whole entry): as the sequence (Q9EP86 whole entry) above

Regarding `CC(C)C[C@H](NC(=O)[C@H](N)Cc1ccc(O)cc1)C(=O)N(C)[C@@H](Cc1ccccc1)C(=O)N[C@@H](CCC(N)=O)C(=O)N1CCC[C@H]1C(=O)N[C@@H](CCC(N)=O)C(=O)N[C@@H](CCCNC(=N)N)C(=O)N[C@@H](Cc1ccccc1)C(N)=O` [(D-Tyr^1-(NMe)Phe^3)NPFF] (H-[dY]L[NMeF]QPQRF-NH2; N-terminus assumed), in assay [1], the “pKi for rat spinal cord membrane receptor binding, MEAN” value is given as “*9.724”. For the same molecule, in [2] (spinal cord membranes, read-out: Ki, inhibition of [125I](1DMe)Y8Fa binding), the Ki is 0.16 nM.

`CSCC[C@@H](NC(=O)[C@@H](N)Cc1ccccc1)C(=O)N[C@@H](CCCNC(=N)N)C(=O)N[C@@H](Cc1ccccc1)C(N)=O` [D-Met-FMRF amide]: the Ki in assay [3] was 251 nM; in assay [4] it was 398 nM; in assay [5], 631 nM; in [6], 631 nM.

Consider `CN1CC[C@]23c4c5ccc(O)c4O[C@H]2[C@@H](O)C=C[C@H]3[C@H]1C5` [morphine], for which, in assay [2], the “inhibition of [125I](1DMe)Y8Fa binding” value was “No inhibition”.

Consider `CSCC[C@H](NC(=O)[C@H](CC(C)C)NC(=O)CNC(=O)[C@H](Cc1ccccc1)NC(=O)[C@H](Cc1ccccc1)NC(=O)[C@H](CCC(N)=O)NC(=O)[C@H](CCC(N)=O)NC(=O)[C@@H]1CCCN1C(=O)[C@H](CCCCN)NC(=O)[C@@H]1CCCN1C(=O)[C@@H](N)CCCN=C(N)N)C(N)=O` [substance P], for which the “inhibition of [125I](1DMe)Y8Fa binding” value in assay [2] is recorded as “No inhibition”.

Turning to “APSEPHHPGDQATQDQLAQYYSDLYQYITFVTRPRF-NH2 (C-terminus assumed) [fPP]”, the “pKi for rat spinal cord membrane receptor binding, MEAN” value in [1] is “*9.118”. In addition, the “fold greater affinity for human NPFF2 compared to human NPFF1” value in assay [4] (from competition binding pKi) amounted to 77 fold. For the same molecule, in [5] (from competition binding pKi), the “fold greater affinity for rat NPFF2 compared to rat NPFF1” value was found to be 31 fold. Besides, in assay [7], the “effect on distension-induced rhythmic contractions of the bladder” value is given as “inhibited”. Moreover, the “pKi for cloned rat NPFF1 receptor binding in COS-7 cells, MEAN” value in assay [8] (competition of [125I]D-Tyr-NPFF binding, COS-7 membranes) is listed as 5.5. Besides, the “displacement of [125I]D-Tyr-NPFF binding on the NPFF1 receptor” value in [8] (up to 1 uM) was “did not displace”.

As for H-AGEGLSSPFWSLAAPQRF-NH2 [A18Fa], the “pKi for rat spinal cord membrane receptor binding, MEAN” value in [1] is recorded as “*9.000”. Also, the Ki in [3] is 63.1 nM; in assay [4], 1.26 nM; in assay [5] it was 6.31 nM; in assay [6], 31.6 nM. Also, the inward current response entry in assay [9] is recorded as “robust inward currents”; in [10], “activated similar inward currents”.

For NPY, the inward current response result in assay [10] is “failed to activate; also recorded: no response”. Further, in assay [2], the “inhibition of [125I](1DMe)Y8Fa binding” value is “No inhibition”.

As to neurokinin A, the inward current response result in assay [10] is “failed to activate; also recorded: no response”.

For the molecule “orexin A (QPLPDCCRQKTCSCRLYELLHGAGNHAAGILTL; ends and bridges not checked; cysteine pairing not given here; UniProt O43612 34-66, looked up)”, in assay [10], the inward current response entry is “failed to activate; also recorded: no response”.

The values above are taken from US7276339B2 (H. Lundbeck A/S, priority 1998, dated 2007).
